According to ChEMBL document CHEMBL1140515, “Virtual screening and bioassay study of novel inhibitors for dengue virus mRNA cap (nucleoside-2'O)-methyltransferase” (Bioorg Med Chem, 2007):

Tests used:
[1] = system: Dengue virus; experiment: Inhibition of Dengue virus NS5MTase assessed as methylation of 7MeGpppAC5 at 100 uM
[2] = Inhibition of Dengue virus NS5MTase assessed as methylation of 7MeGpppAC5

inhibition [1] [%] | IC50 [2] [µM] | SMILES
5 | – | CC[C@@H](C)[C@H](NS(=O)(=O)c1ccc(C)cc1)C(=O)Oc1ccc2c(c1)oc(=O)c1cc(OC)ccc12
5 | – | Cc1cc2oc(=O)cc(COC(=O)CN3C(=O)N[C@]4(C[C@H](C)CC(C)(C)C4)C3=O)c2cc1C(C)C
5 | – | Cc1ccc(S(=O)(=O)N2CCCCC2)cc1NC(=O)COC(=O)CN1C(=O)N[C@@]2(C[C@H](C)CC(C)(C)C2)C1=O
5 | – | O=C(Oc1cccc(NC2=NS(=O)(=O)c3ccccc32)c1)c1ccc(S(=O)(=O)N2CCCCC2)cc1
5 | – | N[C@H](C(=O)O)[C@@H](O)c1ccc(OCc2ccccc2)c(OCc2ccccc2)c1
5 | – | CCOC(=O)Cn1c(=O)n(C[C@H]2CC[C@H](C(=O)NCCc3ccccc3)CC2)c(=O)c2ccccc21
5 | – | C[n+]1cn(CCCCCCn2cc([C@@H](O)c3ccccc3)[n+](C)c2)cc1[C@@H](O)c1ccccc1
5 | – | COC(=O)[C@@H](Cc1ccccc1)NC(=O)NC12CC3CC(C1)CC(c1ccc(C)cc1)(C3)C2
5 | – | CN(C)S(=O)(=O)c1ccc(Cl)c(NC(=O)COC(=O)CNC(=O)CC23CC4CC(CC(C4)C2)C3)c1
5 | – | CC[C@@H](C)[C@H](NS(=O)(=O)c1ccc(C)cc1)C(=O)Oc1ccc2c(-c3ccc(OC)cc3)cc(=O)oc2c1
5 | – | CC[C@@H](C)[C@H](NS(=O)(=O)c1ccc(C)cc1)C(=O)Oc1cc2oc(=O)cc(-c3ccccc3)c2cc1Cl
75 | 60.5 | Cc1ccc(C23CC4CC(CC(NC(=O)N[C@@H](Cc5ccccc5)C(=O)O)(C4)C2)C3)cc1
5 | – | O=C(N[C@@H](Cc1ccccc1)C(=O)O)c1ccc(C(=O)N[C@H](Cc2ccccc2)C(=O)O)cc1
5 | – | O=C(O)[C@H]1CCCC[C@@H]1C(=O)N[C@H]1CCCC[C@@H]1NC(=O)[C@@H]1CCCC[C@H]1C(=O)O
5 | – | CC(C)[C@@H](N)C(=O)NC[C@H]1CC[C@@H](C(=O)N[C@@H](Cc2ccccc2)C(=O)O)CC1
